Patent US20240173289A1, “USE OF OXYMETHYL-MODIFIED DERIVATIVE OF QUERCETIN IN PREPARATION OF DRUG FOR INHIBITING TUMOR CELL PROLIFERATION” (ZHEJIANG UNIVERSITY, priority 2021, published 2024)
≈ marks a conversion by molar mass, not a printed value. Read-outs that look alike come from different tables or passages of the source.

Key:
[1] = tested on: Osteosarcoma cell line 143B; assay: in vitro cell proliferation inhibition (CCK-8); format: cell-based; settings: 48 h incubation
Excerpt: (§1) Osteosarcoma cell line 143B, HOS, and U2, liver cancer cell line HepG2, breast cancer cell line MDA-MB-231 and T47D, gastric cancer cell line AGS, BGC-823, and SGC-7901, cervical cancer cells Hela, lung cancer cells A549, intestinal cancer cells Caco2, mouse glioma cells BV-2, human prostate cancer cells PC3, human thyroid cancer cell line BCPAP, human normal liver cell line L02, human normal gastric cell line GES, human umbilical vein epithelial cells HUVEC, and human embryonic lung fibroblasts WI-38 were cultured in a DMEM medium containing 10% fetal bovine serum and 1×HEPES in a humid incubator (37° C., 5% CO2). The cells were passaged with trypsin-EDTA in logarithmic phase. Certain density of cells (AGS, T47D, Caco2, BCPAP, GES, HUVEC 1×10^5 cells per well; HepG2, MDA-MB-231, BGC-823, A549, PC3, L02 8×10^4 cells per well; 143B, HOS, U2, SGC-7901, Hela, BV-2, 5×10^4 cells per well; WI-38, 3×10^5 cells per well) were inoculated in a 96-well plate, and cultured for 24 h before treatment. After replacing a fresh medium, 12.5 mg/L to 400 mg/L of quercetin, quercetin 3-methyl ether, and quercetin 3,3′-dimethyl ether dissolved with DMSO were added into the medium (a final volume ratio was 0.1%, and the DMSO was used as a […]). After incubation for 48 h, a complete medium was replaced with a serum-free medium containing 10% CCK-8 reagent. The absorbance at 450 nm and 620 nm was measured separately after the cells were incubated for 1 h. Each experiment was repeated three times independently.
as §1, with “400 mg/L,” for “400 mg/L”, “of” for “of quercetin, quercetin 3-methyl ether, and”, “DMSO was” for “DMSO were”, “into a” for “into the”

[2] = tested on: liver cancer cell line HepG2; assay: in vitro cell proliferation inhibition (CCK-8); format: cell-based; settings: 48 h incubation
Excerpt: as §1
as §1, with “400 mg/L,” for “400 mg/L”, “of” for “of quercetin, quercetin 3-methyl ether, and”, “DMSO was” for “DMSO were”, “into a” for “into the”

[3] = tested on: breast cancer cell line MDA-MB-231; assay: in vitro cell proliferation inhibition (CCK-8); format: cell-based; settings: 48 h incubation
Excerpt: as §1
as §1, with “400 mg/L,” for “400 mg/L”, “of” for “of quercetin, quercetin 3-methyl ether, and”, “DMSO was” for “DMSO were”, “into a” for “into the”

[4] = tested on: breast cancer cell line T47D; assay: in vitro cell proliferation inhibition (CCK-8); format: cell-based; settings: 48 h incubation
Excerpt: as §1
as §1, with “400 mg/L,” for “400 mg/L”, “of” for “of quercetin, quercetin 3-methyl ether, and”, “DMSO was” for “DMSO were”, “into a” for “into the”

[5] = tested on: cervical cancer cells Hela; assay: in vitro cell proliferation inhibition (CCK-8); format: cell-based; settings: 48 h incubation
Excerpt: as §1
as §1, with “400 mg/L,” for “400 mg/L”, “of” for “of quercetin, quercetin 3-methyl ether, and”, “DMSO was” for “DMSO were”, “into a” for “into the”

[6] = tested on: intestinal cancer cells Caco2; assay: in vitro cell proliferation inhibition (CCK-8); format: cell-based
Excerpt: as §1
as §1, with “400 mg/L,” for “400 mg/L”, “of” for “of quercetin, quercetin 3-methyl ether, and”, “DMSO was” for “DMSO were”, “into a” for “into the”

[7] = tested on: gastric cancer cell line BGC-823; assay: in vitro cell proliferation inhibition (CCK-8); format: cell-based
Excerpt: as §1
as §1, with “400 mg/L,” for “400 mg/L”, “of” for “of quercetin, quercetin 3-methyl ether, and”, “DMSO was” for “DMSO were”, “into a” for “into the”

lung cancer cells A549 = assay: in vitro cell proliferation inhibition (CCK-8); format: cell-based; settings: 48 h incubation
Excerpt: as §1
as §1, with “400 mg/L,” for “400 mg/L”, “of” for “of quercetin, quercetin 3-methyl ether, and”, “DMSO was” for “DMSO were”, “into a” for “into the”

mouse glioma cells BV-2 = assay: in vitro cell proliferation inhibition (CCK-8); format: cell-based; settings: BV2, 48 h incubation
Excerpt: as §1
as §1, with “400 mg/L,” for “400 mg/L”, “of” for “of quercetin, quercetin 3-methyl ether, and”, “DMSO was” for “DMSO were”, “into a” for “into the”

[8] = tested on: gastric cancer cell line SGC-7901; assay: in vitro cell proliferation inhibition (CCK-8); format: cell-based
Excerpt: as §1
as §1, with “400 mg/L,” for “400 mg/L”, “of” for “of quercetin, quercetin 3-methyl ether, and”, “DMSO was” for “DMSO were”, “into a” for “into the”

[9] = tested on: human thyroid cancer cell line BCPAP; assay: in vitro cell proliferation inhibition (CCK-8); format: cell-based; settings: 48 h incubation
Excerpt: as §1
as §1, with “400 mg/L,” for “400 mg/L”, “of” for “of quercetin, quercetin 3-methyl ether, and”, “DMSO was” for “DMSO were”, “into a” for “into the”

[10] = tested on: gastric cancer cell line AGS; assay: in vitro cell proliferation inhibition (CCK-8); format: cell-based; settings: 48 h incubation
Excerpt: as §1
as §1, with “400 mg/L,” for “400 mg/L”, “of” for “of quercetin, quercetin 3-methyl ether, and”, “DMSO was” for “DMSO were”, “into a” for “into the”

[11] = tested on: Osteosarcoma cell line U2; assay: in vitro cell proliferation inhibition (CCK-8); format: cell-based; settings: 48 h incubation
Excerpt: as §1
as §1, with “400 mg/L,” for “400 mg/L”, “of” for “of quercetin, quercetin 3-methyl ether, and”, “DMSO was” for “DMSO were”, “into a” for “into the”

[12] = tested on: human prostate cancer cells PC3; assay: in vitro cell proliferation inhibition (CCK-8); format: cell-based; settings: 48 h incubation
Excerpt: as §1
as §1, with “400 mg/L,” for “400 mg/L”, “of” for “of quercetin, quercetin 3-methyl ether, and”, “DMSO was” for “DMSO were”, “into a” for “into the”

[13] = tested on: Osteosarcoma cell line HOS; assay: in vitro cell proliferation inhibition (CCK-8); format: cell-based; settings: 48 h incubation
Excerpt: as §1
as §1, with “400 mg/L,” for “400 mg/L”, “of” for “of quercetin, quercetin 3-methyl ether, and”, “DMSO was” for “DMSO were”, “into a” for “into the”

[14] = tested on: HepG2 transplanted tumors; assay: proliferation of HepG2 transplanted tumors in nude mice in vivo; parameters: species or system BALB/c nude mice; settings: 10 mg/kg bw·d intraperitoneal; day 12
Description: BALB/c nude mice (5 to 6 weeks old), weighing 19 g to 22 g, were purchased from Shanghai Experimental Animal Center, Chinese Academy of Sciences. HepG2 cells were collected in a serum-free DMEM medium to make a cell suspension, and then the cell suspension was injected into an underarm area of each mouse, approximately 2.0×10^6 cells, one site per mouse. All mice were bred in the Experimental Animal Center of Zhejiang University, under the environment of 23° C. to 25° C., humidity 50% to 60%, and cycle of 12 h light illumination/dark 12 h. After tumor formation, the mice were randomly divided into 3 groups with 7 mice in each group. The model group was given saline by intraperitoneal injection; the positive drug group was given tegafur at 10 mg/kg bw·d by intraperitoneal injection; the treatment group was intraperitoneally injected with the quercetin 3,3′-dimethyl ether at 50 mg/kg bw·d. According to the change of tumor volume, after the tumor formed, intraperitoneal injection was conducted every 1 d to 2 d, the tumor volume was measured, and the body weight of the mice was weighed. When there was a significant difference in tumor volume between different treatment groups, the mice were sacrificed by cervical dislocation, and the tumor tissue was carefully peeled off, weighed, and calculated. The formulas were: tumor formation rate (%)=(number of tumor-forming mice in treatment group/number of tumor-forming mice in inoculation group)×100; tumor inhibition rate (%)=(average tumor weight in control group (g)−average tumor weight in administration group (g))/average tumor weight in control group (g)×100. Serum, liver, spleen, and kidney were collected and weighed.

For `O=c1c(O)c(-c2ccc(O)c(O)c2)oc2cc(O)cc(O)c12` [Quercetin, quercetin], the IC50 ([1]; Homo sapiens, read-out: IC50) was over 400 µg/mL, the IC50 ([2]; Homo sapiens, read-out: IC50) was 155 µg/mL (≈ 513 µM) and the IC50 ([3]; Homo sapiens, read-out: IC50) was 331 µg/mL (≈ 1090 µM). For the same molecule, the IC50 ([4]; Homo sapiens, read-out: IC50) was over 400 µg/mL, the IC50 ([5]; Homo sapiens, read-out: IC50) was 196 µg/mL (≈ 648 µM) and the IC50 ([6]; Homo sapiens, Caco-2, 48 h incubation, read-out: IC50) was over 400 µg/mL. For the same molecule, the IC50 ([7]; Homo sapiens, BGC-823, BGC823, 48 h incubation, read-out: IC50) was over 400 µg/mL, the IC50 (lung cancer cells A549; Homo sapiens, read-out: IC50) was over 400 µg/mL and the IC50 (mouse glioma cells BV-2; Mus musculus, Glioma cell, read-out: IC50) was over 400 µg/mL. For the same molecule, the IC50 ([8]; Homo sapiens, SGC-7901, SGC7901, 48 h incubation, read-out: IC50) was over 400 µg/mL, the IC50 ([9]; Homo sapiens, read-out: IC50) was 391 µg/mL (≈ 1290 µM) and the IC50 ([10]; read-out: IC50) was 329 µg/mL (≈ 1090 µM). For the same molecule, the IC50 ([11]; read-out: IC50) was over 400 µg/mL, the IC50 ([12]; Homo sapiens, read-out: IC50) was over 400 µg/mL and the IC50 ([13]; read-out: IC50) was over 400 µg/mL.
`COc1c(-c2ccc(O)c(O)c2)oc2cc(O)cc(O)c2c1=O` [Quercetin 3-methyl ether, quercetin 3-methyl ether] showed an IC50 [1] of 210.34 µg/mL (≈ 665 µM), an IC50 [2] of 58.45 µg/mL (≈ 185 µM) and an IC50 [3] of 92.14 µg/mL (≈ 291 µM). It also gave an IC50 [4] of 154.72 µg/mL (≈ 489 µM), an IC50 [5] of 82.34 µg/mL (≈ 260 µM) and an IC50 ([6]; 48 h incubation) of 215.61 µg/mL (≈ 682 µM). It also gave an IC50 ([7]; BGC823, 48 h incubation) of 192.55 µg/mL (≈ 609 µM), an IC50 (lung cancer cells A549) of 252.27 µg/mL (≈ 798 µM) and an IC50 (mouse glioma cells BV-2) of 288.00 µg/mL (≈ 911 µM). The IC50 ([8]; SGC7901, 48 h incubation) was 123.94 µg/mL (≈ 392 µM), the IC50 [9] was 157.67 µg/mL (≈ 499 µM) and the IC50 [10] was 117.04 µg/mL (≈ 370 µM). For the same molecule, the IC50 [11] was 377.08 µg/mL (≈ 1190 µM), the IC50 [12] was 368.40 µg/mL (≈ 1160 µM) and the IC50 [13] was 130.84 µg/mL (≈ 414 µM).
In the case of `O=c1[nH]c(=O)n(C2CCCO2)cc1F` (stereo not shown) [tegafur, reference compound], the “mortality of the mice” value [14] is reported as “all dead”.
